Tests used:
IL-4 mRNA in LN cells = experiment: IL-4 mRNA by real-time PCR in LN cells of GA-immunized CD-1, BALB/cByJ, SJL/J mice (Example III); assay type: cell-based, mouse; conditions: 6 hours
Experimental: (§1) On Day 0, mice were immunized with 250 μg GA (GMA, Mylan Pharmaceuticals, Inc.) and CFA. The GA solution (20 mg/mL) was diluted with Dulbecco's Phosphate-Buffered Saline to 5 mg/mL. The dosing formulation consisted of equal volumes of the diluted GA solution (5 mg/mL) and CFA solution, mixed until well-emulsified. Animals were weighed and allocated to groups. Animals were dosed by injection into four footpads. The injection volume per animal was 0.1 mL (about 10 μL into each front footpad, and 40 μL into each hind footpad).
(§2) Immunized animals were euthanized by cervical dislocation on Day 10 post-immunization. Lymph node cells were isolated from animals and treated with Myelin Basic Protein (MBP, a negative control), Concanavalin A (ConA, a positive control) or GA as shown in Table 16. Lymph nodes in the axillary and popliteal regions were removed aseptically in a purifier clean bench. […] The LN were then washed 3 times with −5 mL of RPMI medium, and isolated by pressing the LN with a syringe plunger. […] The cell suspension was centrifuged at about 200×g for 10 minutes at about 4° C. and re-suspended in ice cold enriched DCCM-1 medium. Cells were seeded in 96-well tissue culture plates.
(§3) LN cells isolated from GA-immunized animals were stimulated with GA (GMA, Mylan Pharmaceuticals, Inc.) at concentrations as indicated in Tables 16 and 17. A positive control was prepared by treating LN cells with 2.5 μg/mL concavalin A (ConA, a non-specific T cell stimulant). Myelin basic protein (MBP, 10 μg/mL) and enriched DCCM-1 medium served as negative controls. The cells from all groups each were stimulated with the same GA lot. Each reaction was set up in triplicate.
(§4) After incubation at about 37° C. in a humidified CO2 incubator for 6 hours, the cells were lysed for total RNA isolation. Total RNA was isolated from treated LN cells using SV 96 Total RNA Isolation System according to the manufacturer's protocol (Promega, Cat. #Z3500). Cells were washed once with Phosphate Buffered Saline (PBS) and lysed in RNA lysis buffer. The lysate was transferred to wells of the SV 96 binding plate. Samples were washed with RNA wash solution and treated with DNase. Total RNA was eluted with nuclease-free water from the binding plate.
(§5) After the reverse transcriptase reaction was completed, cDNA samples were used directly for real-time PCR to measure the response biomarker mRNA levels produced by the stimulated cells. […] All probes for target genes contained FAM dye, and probes for the internal control contained VIC®/MGB dye. Samples will be prepared and run in 96-well plates using a Real-Time PCR system (7500, Life Technologies). This system allows direct detection of PCR-product formation by measuring the increase in fluorescent emission continuously during the PCR reaction. A relative quantitation method was used to analyze changes in mouse IL-2, IL-4, IL-5, IL-10, IL-13, IFN-γ and TNF-α expression in GA-treated samples relative to the untreated control (enriched DCCM-1 treated) samples. The Real-Time PCR program was:
(§6) The levels of mouse cytokine amplicons (IL-2, IL-4, IL-5, IL-10, IL-13, mIFN-γ and TNF-α) were normalized to internal probe levels (GAPDH) from the same samples. The following equations were used to calculate the relative increase in response to GA stimulation compared to the control sample: ΔCT=CT_target−CT_reference ΔΔCT=−ΔCT_Treated−CT_VC

IL-13 mRNA in LN cells = experiment: IL-13 mRNA by real-time PCR in LN cells of GA-immunized CD-1, BALB/cByJ, SJL/J mice (Example III); assay type: cell-based, mouse; conditions: 6 hours
Experimental: as §1, §2, §3, §4, §5, §6

[1] = system: mouse IL-4 mRNA in primary LN cells; experiment: Mouse IL-4 mRNA in LN cells of immunized SJL/J mice stimulated with Copaxone and GMA lots, normalized to Actβ or GAPDH (Example V); assay type: cell-based
Experimental: A real-time polymerase chain reaction method was used to measure the expression of cytokine mRNA in GA-stimulated LN cells from GA-immunized SJL/J mice. Normalization of expression with two different housekeeping genes, GAPDH and β-actin, was tested.
Each group consisted of six female SJL/J mice immunized by injection in all four footpads with a total dose of 250 μg of one lot of GA, or mannitol and no GA. Three Copaxone batches and three GMA batches were used to immunize the mice. CFA was included in both GA and mannitol immunizations. Ten days following immunization, LN cell samples isolated from the immunized mice were each stimulated with a concentration of a Copaxone lot and a GMA lot. A positive control of 2.5 μg/mL ConA treated LN cells and a negative control of 10 μg/mL MBP treated cells were included in each group.
Therefore, the Q-PCR analysis was repeated on the samples, measuring levels of IL-2, IL-4, IL-5, and IL-13, using both GAPDH and β-actin as reference gene.

[2] = system: KC (CXCL1) secreted by LN cells; experiment: KC (CXCL1) secretion by GA-stimulated LN cells, MSD 9-plex ELISA (Example II); assay type: cell-based, mouse; conditions: for KC secretion response ratio (treated cell medium to control DCCM1 medium): 21 hr
[3] = Group 1C: CD-1, GA-immunized, stimulation 0.3 μg/mL
[4] = Group 1C: CD-1, GA-immunized, stimulation 1 μg/mL
[5] = Group 1C: CD-1, GA-immunized, stimulation 3 μg/mL
[6] = Group 1C: CD-1, GA-immunized, stimulation 10 μg/mL
[7] = Group 2C: BALB/cByJ, GA-immunized, stimulation 0.3 μg/mL
[8] = Group 2C: BALB/cByJ, GA-immunized, stimulation 1 μg/mL
[9] = Group 2C: BALB/cByJ, GA-immunized, stimulation 3 μg/mL
[10] = Group 2C: BALB/cByJ, GA-immunized, stimulation 10 μg/mL
[11] = Group 3C: SJL/J, GA-immunized, stimulation 0.3 μg/mL
[12] = Group 3C: SJL/J, GA-immunized, stimulation 1 μg/mL
[13] = Group 3C: SJL/J, GA-immunized, stimulation 3 μg/mL
[14] = Group 3C: SJL/J, GA-immunized, stimulation 10 μg/mL
[15] = Group 1C: CD-1, GA-immunized, stimulation 2.5 μg/mL
[16] = Group 2C: BALB/cByJ, GA-immunized, stimulation 2.5 μg/mL
[17] = Group 3C: SJL/J, GA-immunized, stimulation 2.5 μg/mL
[18] = BALB/cByJ, immunized GA Lower Limb
[19] = C57BL10J, immunized GA Intraplantar
[20] = C57BL10J, immunized GA Lower Limb

Q: What does the source list for “L-glutamic acid polymer with L-alanine, L-lysine and L-tyrosine, acetate (salt) [GA]”?
A: IL-4 mRNA Expression (IL-4 mRNA in LN cells; [3]): 1.6 fold change vs control; IL-4 mRNA Expression (IL-4 mRNA in LN cells; [4]): 4.7 fold change vs control; IL-4 mRNA Expression (IL-4 mRNA in LN cells; [5]): 6.1 fold change vs control; IL-4 mRNA Expression (IL-4 mRNA in LN cells; [6]): 11.2 fold change vs control; IL-4 mRNA Expression (IL-4 mRNA in LN cells; [7]): 4.2 fold change vs control; IL-4 mRNA Expression (IL-4 mRNA in LN cells; [8]): 6.5 fold change vs control; IL-4 mRNA Expression (IL-4 mRNA in LN cells; [9]): 10.1 fold change vs control; IL-4 mRNA Expression (IL-4 mRNA in LN cells; [10]): 9.8 fold change vs control; IL-4 mRNA Expression (IL-4 mRNA in LN cells; [11]): 2.0 fold change vs control; IL-4 mRNA Expression (IL-4 mRNA in LN cells; [12]): 5.2 fold change vs control; IL-4 mRNA Expression (IL-4 mRNA in LN cells; [13]): 10.0 fold change vs control; IL-4 mRNA Expression (IL-4 mRNA in LN cells; [14]): 15.3 fold change vs control; IL-13 mRNA Expression (IL-13 mRNA in LN cells; [3]): 1.7 fold change vs control; IL-13 mRNA Expression (IL-13 mRNA in LN cells; [4]): 3.3 fold change vs control; IL-13 mRNA Expression (IL-13 mRNA in LN cells; [5]): 9.4 fold change vs control; IL-13 mRNA Expression (IL-13 mRNA in LN cells; [6]): 12.3 fold change vs control; IL-13 mRNA Expression (IL-13 mRNA in LN cells; [7]): 3.2 fold change vs control; IL-13 mRNA Expression (IL-13 mRNA in LN cells; [8]): 9.1 fold change vs control; IL-13 mRNA Expression (IL-13 mRNA in LN cells; [9]): 12.4 fold change vs control; IL-13 mRNA Expression (IL-13 mRNA in LN cells; [10]): 12.6 fold change vs control; IL-13 mRNA Expression (IL-13 mRNA in LN cells; [11]): 1.7 fold change vs control; IL-13 mRNA Expression (IL-13 mRNA in LN cells; [12]): 7.3 fold change vs control; IL-13 mRNA Expression (IL-13 mRNA in LN cells; [13]): 12.9 fold change vs control; IL-13 mRNA Expression (IL-13 mRNA in LN cells; [14]): 20.0 fold change vs control; IL-4 cross-potency ([1]; Copaxone: C/A, GMA: B/D, 5 μg/mL): 103%; KC secretion, dose response to GA (in words) ([2]; cells from any of the three mouse strains): No dose response

Q: For “Concanavalin A [ConA, reference compound]”, which “IL-4 mRNA Expression” value (IL-4 mRNA in LN cells; [15]) is on record?
A: 23.8 fold change vs control

Q: What about the “IL-4 mRNA Expression” value (IL-4 mRNA in LN cells; [16]) of the same molecule?
A: 27.2 fold change vs control

Q: What about the “IL-4 mRNA Expression” value (IL-4 mRNA in LN cells; [17]) of the same molecule?
A: 29.2 fold change vs control

Q: And the “IL-13 mRNA Expression” value (IL-13 mRNA in LN cells; [15])?
A: 31.3 fold change vs control

Q: What about the “IL-13 mRNA Expression” value (IL-13 mRNA in LN cells; [16]) of the same molecule?
A: 32.0 fold change vs control

Q: What about the “IL-13 mRNA Expression” value (IL-13 mRNA in LN cells; [17]) of the same molecule?
A: 24.4 fold change vs control

Q: What about the “IL-4 mRNA Fold Change” value ([1]; Group 3 (mice immunized with GA-M2 Mylan GMA), 2.5 μg/mL, normalized to Actβ) of the same molecule?
A: 43.6 fold

Q: What about the “IL-4 mRNA Fold Change” value ([1]; Group 3 (mice immunized with GA-M2 Mylan GMA), 2.5 μg/mL, normalized to GAPDH) of the same molecule?
A: 87.9 fold

Q: What about the “IL-4 mRNA Fold Change” value ([1]; Group 4 (mice immunized with GA-C2 Copaxone), 2.5 μg/mL, normalized to Actβ) of the same molecule?
A: 48.3 fold

Q: What about the “IL-4 mRNA Fold Change” value ([1]; Group 4 (mice immunized with GA-C2 Copaxone), 2.5 μg/mL, normalized to GAPDH) of the same molecule?
A: 84.8 fold

Q: What about the “KC secretion response ratio (treated cell medium to control DCCM1 medium)” value (shortened to “KC secretion response ratio”) [2, 18] of the same molecule?
A: 0.90

Q: And the “KC secretion response ratio” value [2, 19]?
A: 1.55

Q: And the “KC secretion response ratio” value [2, 20]?
A: 1.28

Q: What about the “KC secretion response ratio” value ([2]; CD-1, immunized GA Lower Limb) of the same molecule?
A: 1.65

B1: MBP: myelin basic protein, a negative control (protein, UniProt P02686 1-304, looked up)
Myelin basic protein: MGNHAGKRELNAEKASTNSETNRGESEKKRNLGELSRTTSEDNEVFGEADANQNNGTSSQDTAVTDSKRTADPKNAWQDAHPADPGSRPHLIRLFSRDAPGREDNTFKDRPSESDELQTIQEDSAATSESLDVMASQKRPSQRHGSKYLATASTMDHARHGFLPRHRDTGILDSIGRFFGGDRGAPKRGSGKDSHHPARTAHYGSLPQKSHGRTQDENPVVHFFKNIVTPRTPPPSQGKGRGLSLSRFSWGAEGQRPGFGYGGRASDYKSAHKGFKGVDAQGTLSKIFKLGGRDSRSGSPMARR
Q: For B1, which “IL-4 mRNA Expression” value (IL-4 mRNA in LN cells; [6]) is on record?
A: 0.6 fold change vs control

Q: And the “IL-4 mRNA Expression” value (IL-4 mRNA in LN cells; [10])?
A: 1.1 fold change vs control

Q: What about the “IL-4 mRNA Expression” value (IL-4 mRNA in LN cells; [14]) of the same molecule?
A: 0.5 fold change vs control

Q: And the “IL-13 mRNA Expression” value (IL-13 mRNA in LN cells; [6])?
A: 1.5 fold change vs control

Q: And the “IL-13 mRNA Expression” value (IL-13 mRNA in LN cells; [10])?
A: 0.8 fold change vs control

Q: And the “IL-13 mRNA Expression” value (IL-13 mRNA in LN cells; [14])?
A: 0.6 fold change vs control

Q: And the “IL-4 mRNA Fold Change” value ([1]; Group 3 (mice immunized with GA-M2 Mylan GMA), 10 μg/mL, normalized to Actβ)?
A: 0.8 fold

Q: What about the “IL-4 mRNA Fold Change” value ([1]; Group 3 (mice immunized with GA-M2 Mylan GMA), 10 μg/mL, normalized to GAPDH) of the same molecule?
A: 0.7 fold

Q: And the “IL-4 mRNA Fold Change” value ([1]; Group 4 (mice immunized with GA-C2 Copaxone), 10 μg/mL, normalized to Actβ)?
A: 2.4 fold

Q: And the “IL-4 mRNA Fold Change” value ([1]; Group 4 (mice immunized with GA-C2 Copaxone), 10 μg/mL, normalized to GAPDH)?
A: 1.3 fold

Q: And the “KC secretion response ratio” value [2, 18]?
A: 1.02

Q: And the “KC secretion response ratio” value [2, 19]?
A: 1.00

Q: And the “KC secretion response ratio” value [2, 20]?
A: 1.04

Q: What about the “KC secretion response ratio” value ([2]; CD-1, immunized GA Lower Limb) of the same molecule?
A: 1.08
